Experiments:
Type in all cases: in vivo
rice, variety Nato = experiment: Test C: crop response of rice Nato; settings: 29 days, 0 = no injury to 10 = complete kill; for Crop Response, Rice Nato, 1 cm: planting depth 1 cm; for Crop Response, Rice Nato, 2 cm: planting depth 2 cm; for Crop Response, Rice Nato, T: transplanted
Source text: (§1) In test A, soybeans, peanuts, lima beans, green beans and squash were planted in a field infested with the following weed seeds: crabgrass (Digitaria sanquinalis), foxtails (Setaria spp.), barnyardgrass (Echinochloa crusgalli), pigweed (Amaranthus spp.), ragweed (Ambrosia artemisiifolia), velvetleaf (Abutilon theophrasti), purslane (Portulaca oleracea) and flower-of-an-hour (Hibiscus trionum). […] The plots were rated for percent weed control and crop response seven weeks after treatment. Crop response was expressed on a scale of 0 = no injury to 10 = complete kill.
(§2) Test C concerned preemergence weed control in rice. The field selected contained seeds of the following weed species: crabgrass (Digitaria sanquinalis), foxtail (Setaria spp.), barnyardgrass (Echinochloa crusgalli), pigweed (Amaranthus spp.), ragweed (Ambrosia artemisiifolia), velvetleaf (Abutilon theophrasti), purslane (Portulaca oleracea) and flower-of-an-hour (Hibiscus trionum). Two varieties of rice, CSM-3 and Nato, were planted at depths of both 1 and 2 cm. In addition, rice seedlings of both varieties were transplanted into the field to be treated. […] The test chemicals had been formulated as 50% wettable powders. Overall spray volume was 540 l/ha.

foxtails (Setaria spp.) = experiment: Test B: overall spray in carrot field after weed emergence, percent control of foxtails; settings: six weeks after treatment, 0.1% Tween 20
Source text: (§3) Test B involved a field sown to carrots and in which the following weed species emerged naturally: crabgrass (Digitaria sanquinalis), foxtails (Setaria spp.), barnyardgrass (Echinochloa crusgalli), pigweed (Amaranthus spp.), ragweed (Ambrosia artemisiifolia), velvetleaf (Abutilon theophrasti), smartweed (Polygonum spp.) and lambsquarters (Chenopodium album). Sixteen days after sowing, when all species of weeds had emerged, the plants were sprayed overall with a 50% wettable powder formulation of 2-(4-chloro-2-fluorophenyl)4,5,6,7-tetrahydro-2H-isoindole-1,3dione (Treatment I) in the form of an aqueous suspension, at rates of 0.5, 1.0, 2.0 and 4.0 kg/ha, and with 2-(4-chlorophenyl)-4,5,6,7-tetrahydro-2H-isoindole-1,3-dione (Treatment II) in the same form and at the same rates. The spray volume was 425 l/ha. The surfactant Tween 20* was added to all treatments in a concentration of 0.1% by weight. Six weeks after treatment, visual observations were made of percent weed control obtained and, for carrots, crop response.
(§4) *Tween 20 -- A trademark of ICI of America which is the reaction product of sorbitan monolaurate with an average of 20 moles of ethylene oxide.

[1] = test system: lambsquarters (Chenopodium album); experiment: Test B: overall spray in carrot field after weed emergence, percent control of lambsquarters; settings: six weeks after treatment, 0.1% Tween 20
Source text: as §3, §4

[2] = test system: crabgrass (Digitaria sanquinalis); experiment: Test C: preemergence weed control in rice, crabgrass; settings: 29 days after treatment
Source text: (§5) In test A, soybeans, peanuts, lima beans, green beans and squash were planted in a field infested with the following weed seeds: crabgrass (Digitaria sanquinalis), foxtails (Setaria spp.), barnyardgrass (Echinochloa crusgalli), pigweed (Amaranthus spp.), ragweed (Ambrosia artemisiifolia), velvetleaf (Abutilon theophrasti), purslane (Portulaca oleracea) and flower-of-an-hour (Hibiscus trionum). A 50% wettable powder formulation of 2-(4-chloro-2-fluorophenyl)-4,5,6,7-tetrahydro-2H-isoindole-1,3-dione was applied in the form of an aqueous suspension at rates of 0.125, 0.25, 0.5 and 1.0 kg/ha, each treatment replicated twice. The plots were rated for percent weed control and crop response seven weeks after treatment. Crop response was expressed on a scale of 0 = no injury to 10 = complete kill.
(§6) Test C concerned preemergence weed control in rice. The field selected contained seeds of the following weed species: crabgrass (Digitaria sanquinalis), foxtail (Setaria spp.), barnyardgrass (Echinochloa crusgalli), pigweed (Amaranthus spp.), ragweed (Ambrosia artemisiifolia), velvetleaf (Abutilon theophrasti), purslane (Portulaca oleracea) and flower-of-an-hour (Hibiscus trionum). Two varieties of rice, CSM-3 and Nato, were planted at depths of both 1 and 2 cm. In addition, rice seedlings of both varieties were transplanted into the field to be treated. Immediately thereafter, the plot was treated with an aqueous suspension of 2-(4-chloro-2-fluorophenyl)-4,5,6,7-tetrahydro-2H-isoindole-1,3-dione (Treatment I) at rates of 0.125 and 0.25 kg/ha, and an aqueous suspension of 2-(4-chlorophenyl)-4,5,6,7-tetrahydro-2H-isoindole-1,3dione (Treatment II) at rates of 0.25, 0.50, 1.00 and 2.00 kg/ha. The test chemicals had been formulated as 50% wettable powders. Overall spray volume was 540 l/ha. Ratings of percent weed control obtained and crop response were made 29 days after treatment, as described for test A. The ratings are summarized in the following Table III.

[3] = test system: crabgrass (Digitaria sanquinalis); experiment: Test B: overall spray in carrot field after weed emergence, percent control of crabgrass; settings: six weeks after treatment, 0.1% Tween 20
Source text: as §3, §4

[4] = test system: pigweed (Amaranthus spp.); experiment: Test C: preemergence weed control in rice, pigweed; settings: 29 days after treatment
Source text: as §5, §6

[5] = test system: purslane (Portulaca oleracea); experiment: Test C: preemergence weed control in rice, purslane; settings: 29 days after treatment
Source text: as §5, §6

rice, variety CSM-3 = experiment: Test C: crop response of rice CSM-3; settings: 29 days, 0 = no injury to 10 = complete kill; for Crop Response, Rice CSM-3, 1 cm: planting depth 1 cm; for Crop Response, Rice CSM-3, 2 cm: planting depth 2 cm; for Crop Response, Rice CSM-3, T: transplanted
Source text: as §1, §2

[6] = test system: barnyardgrass (Echinochloa crusgalli); experiment: Test B: overall spray in carrot field after weed emergence, percent control of barnyardgrass; settings: six weeks after treatment, 0.1% Tween 20
Source text: as §3, §4

[7] = test system: smartweed (Polygonum spp.); experiment: Test B: overall spray in carrot field after weed emergence, percent control of smartweed; settings: six weeks after treatment, 0.1% Tween 20
Source text: as §3, §4

[8] = test system: barnyardgrass (Echinochloa crusgalli); experiment: Test C: preemergence weed control in rice, barnyardgrass; settings: 29 days after treatment
Source text: as §5, §6

O=C1C2=C(CCCC2)C(=O)N1c1ccc(Cl)cc1F [Treatment I, 2-(4-chloro-2-fluorophenyl)-4,5,6,7-tetrahydro-2H-isoindole-1,3-dione]
Crop Response, Rice Nato, 1 cm (rice, variety Nato; 0.125 kg/ha): 3
Crop Response, Rice Nato, 2 cm (rice, variety Nato; 0.125 kg/ha): 1
Crop Response, Rice Nato, T (rice, variety Nato; 0.125 kg/ha): 0
Crop Response, Rice Nato, 1 cm (rice, variety Nato; 0.25 kg/ha): 6
Crop Response, Rice Nato, 2 cm (rice, variety Nato; 0.25 kg/ha): 2
Crop Response, Rice Nato, T (rice, variety Nato; 0.25 kg/ha): 0
% Control, Foxtails (foxtails (Setaria spp.); 0.5 kg/ha): 70%
% Control, Foxtails (foxtails (Setaria spp.); 1.0 kg/ha): 90%
% Control, Foxtails (foxtails (Setaria spp.); 2.0 kg/ha): 94%
% Control, Foxtails (foxtails (Setaria spp.); 4.0 kg/ha): > 99%
% Control, Lambsquarters ([1]; 0.5 kg/ha): 100%
% Control, Lambsquarters ([1]; 1.0 kg/ha): 100%
% Control, Lambsquarters ([1]; 2.0 kg/ha): 100%
% Control, Lambsquarters ([1]; 4.0 kg/ha): 100%
% Control, Crabgrass ([2]; 0.125 kg/ha): 96%
% Control, Crabgrass ([2]; 0.25 kg/ha): 100%
% Control, Crabgrass ([3]; 0.5 kg/ha): 60%
% Control, Crabgrass ([3]; 1.0 kg/ha): 85%
% Control, Crabgrass ([3]; 2.0 kg/ha): 90%
% Control, Crabgrass ([3]; 4.0 kg/ha): 100%
% Control, Pigweed ([4]; 0.125 kg/ha): 99%
% Control, Pigweed ([4]; 0.25 kg/ha): 100%
% Control, Purslane ([5]; 0.125 kg/ha): 100%
% Control, Purslane ([5]; 0.25 kg/ha): 100%
Crop Response, Rice CSM-3, 1 cm (rice, variety CSM-3; 0.125 kg/ha): 3
Crop Response, Rice CSM-3, 2 cm (rice, variety CSM-3; 0.125 kg/ha): 0
Crop Response, Rice CSM-3, T (rice, variety CSM-3; 0.125 kg/ha): 0
Crop Response, Rice CSM-3, 1 cm (rice, variety CSM-3; 0.25 kg/ha): 5
Crop Response, Rice CSM-3, 2 cm (rice, variety CSM-3; 0.25 kg/ha): 1
Crop Response, Rice CSM-3, T (rice, variety CSM-3; 0.25 kg/ha): 0
% Control, Barnyardgrass ([6]; 0.5 kg/ha): 65%
% Control, Barnyardgrass ([6]; 1.0 kg/ha): 90%
% Control, Barnyardgrass ([6]; 2.0 kg/ha): 94%
% Control, Barnyardgrass ([6]; 4.0 kg/ha): > 99%
% Control, Smartweed ([7]; 0.5 kg/ha): > 99%
% Control, Smartweed ([7]; 1.0 kg/ha): 100%
% Control, Smartweed ([7]; 2.0 kg/ha): 100%
% Control, Smartweed ([7]; 4.0 kg/ha): 100%
% Control, Barnyardgrass ([8]; 0.125 kg/ha): 90%
% Control, Barnyardgrass ([8]; 0.25 kg/ha): 99%

O=C1C2=C(CCCC2)C(=O)N1c1ccc(Cl)cc1 [Treatment II, 2-(4-chlorophenyl)-4,5,6,7-tetrahydro-2H-isoindole-1,3-dione]
Crop Response, Rice Nato, 1 cm (rice, variety Nato; 0.25 kg/ha): 5
Crop Response, Rice Nato, 2 cm (rice, variety Nato; 0.25 kg/ha): 0
Crop Response, Rice Nato, T (rice, variety Nato; 0.25 kg/ha): 1
Crop Response, Rice Nato, 1 cm (rice, variety Nato; 0.50 kg/ha): 8
Crop Response, Rice Nato, 2 cm (rice, variety Nato; 0.50 kg/ha): 1
Crop Response, Rice Nato, T (rice, variety Nato; 0.50 kg/ha): 1
Crop Response, Rice Nato, 1 cm (rice, variety Nato; 1.0 kg/ha): 9
Crop Response, Rice Nato, 2 cm (rice, variety Nato; 1.0 kg/ha): 4
Crop Response, Rice Nato, T (rice, variety Nato; 1.0 kg/ha): 1
Crop Response, Rice Nato, 1 cm (rice, variety Nato; 2.0 kg/ha): 9
Crop Response, Rice Nato, 2 cm (rice, variety Nato; 2.0 kg/ha): 6
Crop Response, Rice Nato, T (rice, variety Nato; 2.0 kg/ha): 2
% Control, Foxtails (foxtails (Setaria spp.); 0.5 kg/ha): 0%
% Control, Foxtails (foxtails (Setaria spp.); 1.0 kg/ha): 20%
% Control, Foxtails (foxtails (Setaria spp.); 2.0 kg/ha): 40%
% Control, Foxtails (foxtails (Setaria spp.); 4.0 kg/ha): 40%
% Control, Lambsquarters ([1]; 0.5 kg/ha): 70%
% Control, Lambsquarters ([1]; 1.0 kg/ha): 80%
% Control, Lambsquarters ([1]; 2.0 kg/ha): 99%
% Control, Lambsquarters ([1]; 4.0 kg/ha): 99%
% Control, Crabgrass ([2]; 0.25 kg/ha): 99%
% Control, Crabgrass ([2]; 0.50 kg/ha): 100%
% Control, Crabgrass ([2]; 1.0 kg/ha): 100%
% Control, Crabgrass ([2]; 2.0 kg/ha): 100%
% Control, Crabgrass ([3]; 0.5 kg/ha): 0%
% Control, Crabgrass ([3]; 1.0 kg/ha): 20%
% Control, Crabgrass ([3]; 2.0 kg/ha): 40%
% Control, Crabgrass ([3]; 4.0 kg/ha): 60%
% Control, Pigweed ([4]; 0.25 kg/ha): 100%
% Control, Pigweed ([4]; 0.50 kg/ha): 100%
% Control, Pigweed ([4]; 1.0 kg/ha): 100%
% Control, Pigweed ([4]; 2.0 kg/ha): 100%
% Control, Purslane ([5]; 0.25 kg/ha): 100%
% Control, Purslane ([5]; 0.50 kg/ha): 100%
% Control, Purslane ([5]; 1.0 kg/ha): 100%
% Control, Purslane ([5]; 2.0 kg/ha): 100%
Crop Response, Rice CSM-3, 1 cm (rice, variety CSM-3; 0.25 kg/ha): 4
Crop Response, Rice CSM-3, 2 cm (rice, variety CSM-3; 0.25 kg/ha): 1
Crop Response, Rice CSM-3, T (rice, variety CSM-3; 0.25 kg/ha): 0
Crop Response, Rice CSM-3, 1 cm (rice, variety CSM-3; 0.50 kg/ha): 5
Crop Response, Rice CSM-3, 2 cm (rice, variety CSM-3; 0.50 kg/ha): 2
Crop Response, Rice CSM-3, T (rice, variety CSM-3; 0.50 kg/ha): 0
Crop Response, Rice CSM-3, 1 cm (rice, variety CSM-3; 1.0 kg/ha): 7
Crop Response, Rice CSM-3, 2 cm (rice, variety CSM-3; 1.0 kg/ha): 4
Crop Response, Rice CSM-3, T (rice, variety CSM-3; 1.0 kg/ha): 0
Crop Response, Rice CSM-3, 1 cm (rice, variety CSM-3; 2.0 kg/ha): 10
Crop Response, Rice CSM-3, 2 cm (rice, variety CSM-3; 2.0 kg/ha): 7
Crop Response, Rice CSM-3, T (rice, variety CSM-3; 2.0 kg/ha): 1
% Control, Barnyardgrass ([6]; 0.5 kg/ha): 0%
% Control, Barnyardgrass ([6]; 1.0 kg/ha): 20%
% Control, Barnyardgrass ([6]; 2.0 kg/ha): 40%
% Control, Barnyardgrass ([6]; 4.0 kg/ha): 50%
% Control, Smartweed ([7]; 0.5 kg/ha): 70%
% Control, Smartweed ([7]; 1.0 kg/ha): 80%
% Control, Smartweed ([7]; 2.0 kg/ha): 80%
% Control, Smartweed ([7]; 4.0 kg/ha): 99%
% Control, Barnyardgrass ([8]; 0.25 kg/ha): 58%
% Control, Barnyardgrass ([8]; 0.50 kg/ha): 97%
% Control, Barnyardgrass ([8]; 1.0 kg/ha): 99%
% Control, Barnyardgrass ([8]; 2.0 kg/ha): 100%

Source: patent publication US4001272A, “Herbicidal 2-fluoro-4-halo-phenyl-4,5,6,7-tetrahydro-2H-isoindole-1,3-diones” (E. I. Du Pont de Nemours and Company, priority 1974, dated 1977)
